Measured values as given in ChEMBL document CHEMBL1201862, “PubChem BioAssay data set” (2004).
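Protocol summary: plate cells (96-well), add compound at 5 concentrations, incubate 48 h, interpolate endpoints linearly. Here, GI50 denotes the concentration required for 50% inhibition of growth.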 Active and inactive are the calls of the source. Cut-off read from the data, not from the text of the source: active = GI50 up to about 1.1 µM and inactive = higher.

How the values were obtained:
Assay in all cases: inhibition of tumour cell growth, NCI panel, 48 h
A498 = system: A498
COLO 205 = system: COLO 205
EKVX = system: EKVX
HCC 2998 = system: HCC 2998
HCT-116 = system: HCT-116
IGROV-1 = system: IGROV-1
LOX IMVI = system: LOX IMVI
MDA-MB-231 = system: MDA-MB-231
NCI-H522 = system: NCI-H522
OVCAR-4 = system: OVCAR-4
OVCAR-8 = system: OVCAR-8
RXF 393 = system: RXF 393
SF-268 = system: SF-268
SNB-19 = system: SNB-19
TK-10 = system: TK-10
UO-31 = system: UO-31
HT-29 = system: HT-29
K562 = system: K562
HOP-92 = system: HOP-92

Measured: GI50

CC(C)=C[C@H]1CCC2(OCCO2)[C@]1(C)CO
inactive: A498 > 100 µM | COLO 205 > 100 µM | EKVX 58.7 µM | HCC 2998 > 100 µM | HCT-116 > 100 µM | IGROV-1 > 100 µM | LOX IMVI > 100 µM | MDA-MB-231 > 100 µM | NCI-H522 > 100 µM | OVCAR-4 > 100 µM | OVCAR-8 > 100 µM | RXF 393 > 100 µM | SF-268 > 100 µM | SNB-19 > 100 µM | TK-10 > 100 µM | UO-31 > 100 µM

C=C1CCC2CC1C(C(=O)c1c[nH]c3ccccc13)=NC2(C)C (centres undefined)
inactive: A498 > 100 µM | COLO 205 > 100 µM | EKVX 77.3 µM | HCC 2998 > 100 µM | HCT-116 > 100 µM | HT-29 > 100 µM | IGROV-1 > 100 µM | K562 92.7 µM | LOX IMVI > 100 µM | MDA-MB-231 > 100 µM | NCI-H522 > 100 µM | OVCAR-4 > 100 µM | OVCAR-8 > 100 µM | SF-268 > 100 µM | SNB-19 > 100 µM | UO-31 > 100 µM

Oc1ccc(Cc2cc(Cc3ccc(O)cc3)cc(Cc3ccc(O)cc3)c2)cc1
inactive: A498 > 50 µM | EKVX > 50 µM | HCC 2998 > 50 µM | HCT-116 > 50 µM | HT-29 > 50 µM | IGROV-1 > 50 µM | K562 > 50 µM | LOX IMVI > 50 µM | MDA-MB-231 > 50 µM | NCI-H522 > 50 µM | OVCAR-4 > 50 µM | OVCAR-8 > 50 µM | SF-268 > 50 µM | SNB-19 > 50 µM | TK-10 > 50 µM | UO-31 > 50 µM

O=C(NN=C1NCCN1)c1ccco1
inactive: COLO 205 > 100 µM | EKVX > 100 µM | HCC 2998 > 100 µM | HCT-116 > 100 µM | HOP-92 > 100 µM | HT-29 > 100 µM | IGROV-1 > 100 µM | K562 > 100 µM | LOX IMVI > 100 µM | MDA-MB-231 > 100 µM | NCI-H522 > 100 µM | OVCAR-4 > 100 µM | OVCAR-8 > 100 µM | RXF 393 > 100 µM | SF-268 > 100 µM | SNB-19 > 100 µM | TK-10 > 100 µM | UO-31 > 100 µM

Cc1cc2nc(N)n[n+]([O-])c2cc1C
inactive: A498 > 100 µM | COLO 205 > 100 µM | EKVX > 100 µM | HCC 2998 > 100 µM | HCT-116 > 100 µM | HT-29 > 100 µM | IGROV-1 > 100 µM | K562 > 100 µM | LOX IMVI > 100 µM | MDA-MB-231 > 100 µM | NCI-H522 > 100 µM | OVCAR-8 > 100 µM | RXF 393 > 100 µM | SF-268 > 100 µM | SNB-19 > 100 µM | TK-10 > 100 µM | UO-31 > 100 µM

Cc1cc(N(CCC#N)CCC#N)ccc1C(/N=N\c1ccc([N+](=O)[O-])cc1)=N\NC(=O)c1cc(Cl)ccc1O
inactive: A498 26.7 µM | COLO 205 25 µM | EKVX 24.3 µM | HCC 2998 16.4 µM | HCT-116 25.5 µM | HT-29 29.4 µM | IGROV-1 24.2 µM | K562 35.2 µM | MDA-MB-231 30.3 µM | NCI-H522 9.35 µM | OVCAR-4 26.5 µM | OVCAR-8 19.8 µM | RXF 393 28.6 µM | SF-268 19.9 µM | SNB-19 34.7 µM | TK-10 46.1 µM | UO-31 13.8 µM

Cc1ccc(C2=CC(=O)OC(C[P+](c3ccccc3)(c3ccccc3)c3ccccc3)(c3ccccc3)O2)cc1 (centres undefined)
inactive: A498 15.1 µM | COLO 205 14.3 µM | EKVX 15.3 µM | HCC 2998 22.4 µM | HCT-116 14.5 µM | HT-29 14.7 µM | IGROV-1 13.7 µM | K562 23.3 µM | MDA-MB-231 28.5 µM | NCI-H522 12 µM | OVCAR-4 16.4 µM | OVCAR-8 24.5 µM | RXF 393 16.7 µM | SF-268 18.5 µM | SNB-19 17 µM | TK-10 20.1 µM | UO-31 16.3 µM

O=C1c2ccccc2C(=O)N1NC1=NCCN1
inactive: A498 > 100 µM | COLO 205 > 100 µM | EKVX > 100 µM | HCC 2998 > 100 µM | HCT-116 > 100 µM | HT-29 > 100 µM | IGROV-1 > 100 µM | K562 > 100 µM | LOX IMVI > 100 µM | MDA-MB-231 > 100 µM | NCI-H522 > 100 µM | OVCAR-4 > 100 µM | OVCAR-8 > 100 µM | RXF 393 > 100 µM | SF-268 > 100 µM | SNB-19 > 100 µM | TK-10 > 100 µM
